Measured values published in PubChem BioAssay (NCI).
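These data come from cells grown in 96-well plates and exposed to compound for 48 hours at five concentrations. Here, GI50 denotes the concentration required for 50% inhibition of growth. TGI denotes the concentration required for complete inhibition of growth.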

Tests used:
Test in all cases: NCI anticancer screen, dose series, 48 h
NCI-H23 lung = test system: NCI-H23 lung
OVCAR-5 ovarian = test system: OVCAR-5 ovarian
PC-3 prostate = test system: PC-3 prostate
SK-MEL-28 melanoma = test system: SK-MEL-28 melanoma
SNB-75 CNS = test system: SNB-75 CNS
UACC-257 melanoma = test system: UACC-257 melanoma
NCI-H460 lung = test system: NCI-H460 lung
MCF7 breast = test system: MCF7 breast
HS 578T breast = test system: HS 578T breast
786-0 renal = test system: 786-0 renal
HOP-62 NSCLC = test system: HOP-62 NSCLC
KM12 colon = test system: KM12 colon
CCRF-CEM leukemia = test system: CCRF-CEM leukemia
DU-145 prostate = test system: DU-145 prostate
MDA-MB-435 = test system: MDA-MB-435
EKVX NSCLC = test system: EKVX NSCLC
NCI/ADR-RES ovarian = test system: NCI/ADR-RES ovarian
UACC-62 melanoma = test system: UACC-62 melanoma
SF-539 CNS = test system: SF-539 CNS
NCI-H522 lung = test system: NCI-H522 lung
RPMI-8226 leukemia = test system: RPMI-8226 leukemia
SF-268 CNS = test system: SF-268 CNS
COLO 205 colon = test system: COLO 205 colon
A549 NSCLC = test system: A549 NSCLC
SK-OV-3 ovarian = test system: SK-OV-3 ovarian
ACHN renal = test system: ACHN renal
SF-295 CNS = test system: SF-295 CNS
UO-31 renal = test system: UO-31 renal
HCC-2998 colon = test system: HCC-2998 colon

## COc1ccc2c(C3=C(c4cn(C)c5ccccc45)C(=O)NC3=O)coc2c1
NCI-H23 lung
  GI50: 0.804 µM
  TGI: 23.6 µM
OVCAR-5 ovarian
  GI50: 0.901 µM
  TGI: 30.7 µM
PC-3 prostate
  GI50: 0.471 µM
  TGI: > 100 µM
SK-MEL-28 melanoma
  GI50: 4.95 µM
  TGI: 35 µM
SNB-75 CNS
  GI50: 0.148 µM
  TGI: 0.71 µM
UACC-257 melanoma
  GI50: 1.44 µM
  TGI: 27.6 µM
NCI-H460 lung
  GI50: 0.353 µM
  TGI: 11.6 µM
MCF7 breast
  GI50: 0.208 µM
  TGI: 26 µM
HS 578T breast
  GI50: 0.234 µM
  TGI: 3.8 µM
786-0 renal
  GI50: 0.524 µM
  TGI: 16.5 µM
HOP-62 NSCLC
  GI50: 0.416 µM
  TGI: 20.1 µM
KM12 colon
  GI50: 0.347 µM
  TGI: 13.1 µM
CCRF-CEM leukemia
  GI50: 0.286 µM
  TGI: 13.7 µM
DU-145 prostate
  GI50: 0.541 µM
  TGI: 19.5 µM
MDA-MB-435
  GI50: 0.132 µM
  TGI: 0.477 µM
EKVX NSCLC
  GI50: 0.593 µM
  TGI: > 88.4 µM
NCI/ADR-RES ovarian
  GI50: 0.207 µM
  TGI: 15 µM
UACC-62 melanoma
  GI50: 0.186 µM
  TGI: 16.6 µM
SF-539 CNS
  GI50: 0.272 µM
  TGI: 1.66 µM
NCI-H522 lung
  GI50: 0.188 µM
  TGI: 0.754 µM
RPMI-8226 leukemia
  GI50: 0.415 µM
  TGI: 12.6 µM
SF-268 CNS
  GI50: 1.19 µM
  TGI: 27.9 µM
COLO 205 colon
  GI50: 0.289 µM
  TGI: 1.31 µM
A549 NSCLC
  GI50: 1 µM
  TGI: > 100 µM
SK-OV-3 ovarian
  GI50: 0.368 µM
  TGI: 47.2 µM
ACHN renal
  GI50: 0.798 µM
  TGI: 15.5 µM
SF-295 CNS
  GI50: 0.469 µM
  TGI: 15.1 µM
UO-31 renal
  GI50: 0.468 µM
  TGI: 23.5 µM
HCC-2998 colon
  GI50: 0.65 µM
  TGI: 10.9 µM
